From patent US11339193B2, “CDP protein secretion inhibitors” (KEZAR LIFE SCIENCES, priority 2018, dated 2022)
Like-named read-outs stand apart in the source and are kept apart here. Numbered stars: 1 amine (or outer) side, 2 acyl side, 3 side chain; on linkers, the order of the positions; unused ones are H or OH. Square brackets hold non-standard residues; d marks the D form. Peptide text beside a SMILES is read from it. NMeAla(5-Cl-benzothien-3-yl) = CN[C@@H](Cc1csc2ccc(Cl)cc12)C(=O)O; X13 = CN([C@@H](Cc1cn(Cc2ccc(Br)cc2)c2ccc(F)cc12)C(=O)[*:2])[*:1]; X18 = Cc1ccc(Cn2cc(C[C@@H](C(=O)[*:2])N(C)[*:1])c3ccccc32)cc1; X15 = CCn1cc(C[C@@H](C(=O)[*:2])N(C)[*:1])c2ccccc21; Butanoyl(2R-oxy,4-CN) = N#CCC[C@@H](O)C(=O)O; X23 = CN([C@@H](CC1=CCCCC1)C(=O)[*:2])[*:1]; X21 = CN([C@@H](CC1=CCCC1)C(=O)[*:2])[*:1]; Abu(4,4,4-F3) = N[C@@H](CC(F)(F)F)C(=O)O; NMeL = CN[C@@H](CC(C)C)C(=O)O; NMeA = CN[C@@H](C)C(=O)O

Columns and labels:
Assay type in all cases: cell-based
[1] = test system: TNFα-FL/Gaussia Luciferase; assay: Dox induced TNFα-FL-Gluc assay; details: read-out: TNFa FL Gluc IC50
Text: Dox Induced TNFα-FL-Gluc Assay
(§1) Flp-In 293 T-REx™ cells were transfected with pcDNA™5/FRT/TO plasmid inserted with cDNA encoding Gaussia Luciferase fused to the 3′ end of cDNA encoding full length TNFα (amino acids 1-233). Transfected cells were selected for resistance to the selectable markers Hygromycin and Blasticidin to create a stable cell line that contained the TNFα-FL/Gaussia Luciferase cDNA insert whose expression was regulated under the T-REx™ system. The day before assay, cells were trypsinized and plated in 384-well tissue culture plates. The next day, compound dilutions in DMSO/media containing doxycycline were added to the wells and incubated at 37° C., 5% CO2.

[2] = test system: PD1-ss+10aa/Gaussia Luciferase; assay: Dox induced PD1-ss-Gluc assay; details: read-out: PD1ss Gluc IC50
Text: Dox Induced PD1-ss-Gluc Assay
as §1, with “PD1 signal sequence plus 10 amino” for “full length TNFα (amino”, “(N-[…]-C) (SEQ ID NO:3).” for “1-233).”, “PD1-ss+10aa/Gaussia” for “TNFα-FL/Gaussia”

[3] = test system: Prl-ss+10aa/Gaussia Luciferase; assay: Prl-ss-Gluc assay (constitutively active or 24 hr Dox inducible); details: read-out: Prl IC50
Text: Constitutively Active Prl-ss-Gluc Assay
Flp-In 293 T-REx™ cells were transfected with pcDNA™5/FRT plasmid inserted with cDNA encoding Gaussia Luciferase fused to the 3′ end of cDNA encoding Prl signal sequence plus 10 amino acids (N-[…]-C) (SEQ ID NO:4). Transfected cells were selected for resistance to the selectable markers Hygromycin and Blasticidin to create a stable cell line that constitutively expressed the Prlss+10aa/Gaussia Luciferase fusion protein. The day before assay, cells were trypsinized and plated in 384-well tissue culture plates. The next day, culture media was removed from the wells and replaced with fresh media. Compound dilutions in DMSO/media were added to the wells and incubated at 37° C., 5% CO2.
24 hr Dox Inducible Prl-ss-Gluc Assay
as §1, with “Prl signal sequence plus 10 amino” for “full length TNFα (amino”, “(N-[…]-C) (SEQ ID NO:5).” for “1-233).”, “Prl-ss+10aa/Gaussia” for “TNFα-FL/Gaussia”

[4] = test system: NCI-H929 multiple myeloma cell line; assay: H929 assay (cell viability, Celltiter-Glo); details: Homo sapiens, NCI-H929, read-out: H929 EC50
Method: The human multiple myeloma cell line NCI-H929 was cultured in Advanced RPMI 1640 media (Gibco@) supplemented with 6% fetal bovine serum, 2 mM Glutamine, and 1× Penicillin/Streptomycin. On the day of assay, cells were resuspended in RPMI 1640 media supplemented with 10% fetal bovine serum, 2 mM Glutamine, and 1× Penicillin/Streptmycin and plated in 384-well tissue culture plates and treated with compound dilutions in DMSO/media. Plates were incubated at 37° C., 5% CO2 for 48 hours. After 48 hours, Celltiter-Glo@ (Promega) was added to each well and luciferase signal was quantified using Tecan Infinite M1000 Pro for cell viability determination.

HER3ss-Gluc = assay: HER3ss assay; details: read-out: HER3 ss IC50
Method: The mature domain of secreted luciferase from Gaussia princeps (GLuc) was cloned into pcDNA5/FRT/TO. The signal sequence plus four amino acids of the mature domain from HER3 ([…]) (SEQ ID NO:8) were cloned upstream of GLuc mature domain and used in transient transfection experiment. HEK-293T T-rex cells were cultured in Dulbecco's modified Eagle's medium with 10% FBS at 5% CO2. Cells were plated 1×10e6 cells per well in a 6-well plate and incubated for 6 h. Cells were transiently transfected with HER3ss-Gluc using Lipofectamine 2000 (Invitrogen). After overnight incubation, transfected cells were replated in a clear-bottomed, black 96-well plate at a density of 20,000 cells per well. Six hours after plating, the cells were treated with doxycycline (1 μg/ml) and increasing concentrations of the indicated compounds for 24 h. Secreted luciferase in the conditioned media was quantified by luminescence using the BioLux Gaussia Luciferase Assay Kit (New England Biolabs, Ipswich, Mass., USA) and a SpectraMax M5 plate reader (Molecular Devices).

[5] = test system: U266B1 multiple myeloma cell line; assay: U266 assay (cell viability, Celltiter-Glo); details: Homo sapiens, U-266
Method: Cells were plated in 384-well tissue culture plates and treated with compound dilutions in DMSO/media. Plates were incubated at 37° C., 5% CO2 for 48 hours. After 48 hours, Celltiter-Glo@ (Promega) was added to each well and luciferase signal was quantified using Tecan Infinite M1000 Pro for cell viability determination.

[6] = Flp-In 293 T-REx cells, doxycycline, 24 hours
[7] = HEK-293T T-rex cells, transient transfection, doxycycline, 24 h
[8] = Flp-In 293 T-REx cells, 24 hours

| SMILES | IC50 [1, 6] [µM] | IC50 [2, 6] [µM] | IC50 ([3]; I.A.) [µM] | EC50 ([4]; 48 hours, cell viability) [µM] | IC50 (HER3ss-Gluc; [7]) [µM] | EC50 ([5]; I.A.) [µM] | IC50 ([1]; I.A.) [µM] | IC50 ([2]; I.A.) [µM] | IC50 [3, 8] [µM] | IC50 (HER3ss-Gluc; I.A.) [µM] | EC50 ([5]; 48 hours, cell viability) [µM] | EC50 ([4]; I.A.) [µM] |
| --- | --- | --- | --- | --- | --- | --- | --- | --- | --- | --- | --- | --- |
| CCn1cc(C[C@H]2C(=O)N[C@@H](CC(C)C)C(=O)N(C)[C@@H](C)C(=O)O[C@H](CCC#N)C(=O)N[C@@H](CC(F)(F)F)C(=O)N(C)[C@@H](CC(C)C)C(=O)N[C@@H](CC(F)(F)F)C(=O)N2C)c2ccccc21 [C-79] (cyclo(L[NMeA][Butanoyl(2R-oxy,4-CN)][Abu(4,4,4-F3)][NMeL][Abu(4,4,4-F3)][X15])) | 1.49 | 0.39 | > 25 | 4.74 | 0.112 | > 25 |  |  |  |  |  |  |
| CC(C)C[C@@H]1NC(=O)[C@H](Cc2csc3ccc(Cl)cc23)N(C)C(=O)[C@H](CC(C)C)NC(=O)[C@H](CC2=CCCCC2)N(C)C(=O)[C@H](CC(F)(F)F)NC(=O)[C@@H](CCC#N)OC(=O)[C@H](C)N(C)C1=O [C-80] (cyclo(L[NMeA][Butanoyl(2R-oxy,4-CN)][Abu(4,4,4-F3)][X23]L[NMeAla(5-Cl-benzothien-3-yl)])) |  |  |  | 3.44 |  |  | > 25 | > 25 | 23.7 | > 25 | 5.68 |  |
| CC(C)C[C@@H]1NC(=O)[C@H](Cc2csc3ccc(Cl)cc23)N(C)C(=O)[C@H](CC(C)C)NC(=O)[C@H](CC2=CCCC2)N(C)C(=O)[C@H](CC(F)(F)F)NC(=O)[C@@H](CCC#N)OC(=O)[C@H](C)N(C)C1=O [C-81] (cyclo(L[NMeA][Butanoyl(2R-oxy,4-CN)][Abu(4,4,4-F3)][X21]L[NMeAla(5-Cl-benzothien-3-yl)])) |  | 0.934 | > 25 |  | 0.088 | > 25 | > 25 |  |  |  |  | > 25 |
| CC(C)C[C@@H]1NC(=O)[C@H](Cc2cn(Cc3ccc(Br)cc3)c3ccc(F)cc23)N(C)C(=O)[C@H](CC(F)(F)F)NC(=O)[C@H](CC(C)C)N(C)C(=O)[C@H](CC(F)(F)F)NC(=O)[C@@H](CCC#N)OC(=O)[C@H](C)N(C)C1=O [C-82] (cyclo(L[NMeA][Butanoyl(2R-oxy,4-CN)][Abu(4,4,4-F3)][NMeL][Abu(4,4,4-F3)][X13])) | 0.104 | 0.042 |  | 0.649 | 0.098 | > 25 |  |  | 0.506 |  |  |  |
| Cc1ccc(Cn2cc(C[C@H]3C(=O)N[C@@H](CC(C)C)C(=O)N(C)[C@@H](C)C(=O)O[C@H](CCC#N)C(=O)N[C@@H](CC(F)(F)F)C(=O)N(C)[C@@H](CC(C)C)C(=O)N[C@@H](CC(F)(F)F)C(=O)N3C)c3ccccc32)cc1 [C-83] (cyclo(L[NMeA][Butanoyl(2R-oxy,4-CN)][Abu(4,4,4-F3)][NMeL][Abu(4,4,4-F3)][X18])) | 0.103 | 0.042 |  | 0.603 | 0.081 | > 25 |  |  | 1.09 |  |  |  |
